Experimental data from patent US20080108669A1, “Use 541” (AstraZeneca AB, priority 2006, published 2008).

Tests used:
human Trk A kinase = biological target: T1, human Trk A kinase (Homo sapiens, UniProt P04629); assay: Trk A kinase assay (Alphascreen); type: biochemical; conditions: human Trk A intracellular domain, 70 μM ATP, 20 minutes, room temperature; read-out: IC50 (Trk inhibitory activity)
T1 construct: HIS; made in house; host or cells: SF9 insect cells
Method: Trk A kinase activity was measured for its ability to phosphorylate synthetic tyrosine residues within a generic polypeptide substrate using an Amplified Luminescent Proximity Assay (Alphascreen) technology (PerkinElmer, 549 Albany Street, Boston, Mass.).
To measure Trk A kinase activity, the intracellular domain of a HIS-tagged human Trk A kinase (amino acids 442-796 of Trk A, Swiss-Prot Primary Accession Number P04629) was expressed in SF9 cells and purified using standard nickel column chromatography. After incubation of the kinase with a biotinylated substrate and adenosine triphosphate (ATP) for 20 minutes at room temperature, the kinase reaction was stopped by the addition of 30 mM ethylenediaminetetraacetic acid (EDTA). The reaction was performed in 384 well microtitre plates and the reaction products were detected with the addition of strepavidin coated Donor Beads and phosphotyrosine-specific antibodies coated Acceptor Beads using the EnVision Multilabel Plate Reader after an overnight incubation at room temperature.

[1] = test system: carrageenan-induced monoarthritis in rat; assay: Monoarthritis induced by carrageenan, Paw Print setup (hindpaw weight distribution, "Walking pain"); type: in vivo; conditions: for hindpaw weight distribution (difference in percent weight-bearing between the two hind paws), mean ±SEM: four hours after administration (five hours after carrageenan), vehicle group 39.0±2.1%, n=8
Method: One single injection of carrageenan directly into the rat knee joint produces symptoms peaking at 3 to 4 hours and lasting for one to two days, and which are sensitive to treatment by most anti-nociceptive drugs (Tonussi and Ferreira, Pain 1992, 48, 421-427).
Under isoflurane anesthesia, 50 μL of carrageenan (7.5 mg/mL) was injected into the left tibio-tarsal (ankle) joint from the dorsal side. This injection causes a localized inflammation increasing to a maximum between 4 h to 8 h after induction, after which it gradually decreases, and the animals display decreased weight bearing on and guarding of the limb.
The Paw Print walkway consists of a 100×10 cm path with an access point at one short end and an exit at the other, and the rats are trained to make a swift, continuous passage. The walkway has a glass floor where light is projected into one long edge via fiber optics. Projecting the light in this fashion allows for virtually complete internal reflection within the glass floor. Only where an object touches the glass, such as the placement of a rat paw, light is scattered at the point of contact and produces an illuminated print (Betts, Duckworth, Eng. Med. 1978, 7, 223-228) that is recorded by a wide-angle camera placed under the walkway. The light intensity (range 0-255) of the illumination depends on the degree of contact against the floor and increases with the applied pressure (Clarke, Physiology & Behavior 1995, 58, 415-419). The Paw Print setup is a modified version of the CatWalk introduced by Hamers, Lankhorst, van Laar, Veldhuis, Gispen (J. Neurotrauma 2001, 18, 187-201), and has a computerized gait detection algorithm extracting several parameters pertaining to the rat's gait pattern and weight-bearing.
The animals were trained to cross the walkway twice, one and two days before induction of monoarthritis. Recordings were subsequently made on the day of testing, immediately before, and three and five hours after carrageenan injection, corresponding to two and four hours after per oral administration of test compound. The following parameters were used for analysis:
Weight-bearing per paw=The total sum of maximum light intensities for all pixels in the print of one paw is multiplied by the number of pixels of the print area. A paw placement consists of a number of pixels with light intensity above a certain threshold value (80 in this study). During the time course of one paw placement, a maximum value of light intensity is recorded for each pixel.
Based on the weight-bearing results, the Paw Print algorithm chooses the median print per paw in one walkway crossing. The median weight-bearing of each paw constitutes a percentage of the sum of all four paws' median weight-bearing results. The difference in percent weight-bearing between the two hind paws is shown (“Walking pain”).
The test compounds were administered 60 min after induction of monoarthritis.
Results were analysed using 1-Way ANOVA followed by Newman-Keuls for comparison between treatment groups for data obtained at each time-point after administration. The level of significance was set at p<0.05 (SigmaStat® 2.03).

T1 sequence (P04629 442-796): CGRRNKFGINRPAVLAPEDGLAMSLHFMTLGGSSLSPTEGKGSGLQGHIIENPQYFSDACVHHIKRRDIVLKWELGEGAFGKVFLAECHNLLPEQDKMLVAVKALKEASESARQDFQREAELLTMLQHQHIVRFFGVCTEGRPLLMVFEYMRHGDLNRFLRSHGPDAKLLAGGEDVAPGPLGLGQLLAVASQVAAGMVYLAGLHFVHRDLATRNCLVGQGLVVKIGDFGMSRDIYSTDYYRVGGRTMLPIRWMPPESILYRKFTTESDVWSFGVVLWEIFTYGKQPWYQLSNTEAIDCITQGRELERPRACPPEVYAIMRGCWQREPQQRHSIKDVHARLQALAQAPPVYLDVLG

`C[C@H](Nc1nc(Nc2cc(C3CC3)[nH]n2)c(Cl)cc1Cl)c1ccc(F)cc1` [(S)-3,5-Dichloro-N^2-(5-cyclopropyl-1H-pyrazol-3-yl)-N^6-(1-(4-fluoro-phenyl)ethyl)pyridine-2,6-diamine] showed an IC50 (human Trk A kinase) of 611 nM.

`CC(C)Oc1cc(Nc2nc(N[C@@H](C)c3ccc(F)cn3)c(C#N)cc2F)n[nH]1` [(S)-5-Fluoro-2-(1-(5-fluoropyridin-2-yl)ethylamino)-6-(5-isopropoxy-1H-pyrazol-3-ylamino)nicotinonitrile] was tested, and the “hindpaw weight distribution (difference in percent weight-bearing between the two hind paws), mean ±SEM” value ([1]; 50 μmol/kg per oral) was 24.6±4.3%, the “hindpaw weight distribution (difference in percent weight-bearing between the two hind paws), mean ±SEM” value ([1]; 100 μmol/kg per oral) was 27.6±3.3% and the “hindpaw weight distribution (difference in percent weight-bearing between the two hind paws), mean ±SEM” value ([1]; 200 μmol/kg per oral) was 18.4±3.2%. The “effect on hindpaw weight distribution vs vehicle (p<0.05)” value ([1]; four hours after per oral administration, all doses tested: 50, 100 and 200 μmol/kg) was “significantly reduced” and the “effect on hindpaw weight distribution vs vehicle (p<0.05)” value ([1]; two hours after per oral administration, 50, 100 and 200 μmol/kg) was “not at two hours”.

In the case of `C[C@H](Nc1ccc([N+](=O)[O-])c(Nc2cc(C3CC3)[nH]n2)n1)c1ccc(F)cc1` [(S)-N^2-(5-Cyclopropyl-1H-pyrazol-3-yl)-N^6-(1-(4-fluorophenyl)ethyl)-3-nitropyridine-2,6-diamine], the IC50 (human Trk A kinase) is reported as 63 nM.

Work on `C[C@H](Nc1nc(Nc2cc(C3CC3)[nH]n2)c(F)cc1CNC(=O)C1CCC(=O)N1)c1ccc(F)cc1` (stereo partly drawn) [N-((6-(5-Cyclopropyl-1H-pyrazol-3-ylamino)-5-fluoro-2-((S)-1-(4-fluorophenyl)ethylamino)pyridin-3-yl)methyl)-5-oxopyrrolidine-2-carboxamide] yielded an IC50 (human Trk A kinase) of 109 nM.
